Target: Human immunodeficiency virus type 1 protease (Human immunodeficiency virus 1, UniProt Q72874, V82A)
Assay: Tested for inhibitor binding of Val82Ala mutant of HIV PR
Set-up: species or system human immunodeficiency virus type1

Question: For `NC(=O)[C@H](CCC(=O)O)NC(=O)[C@H](CCC(=O)O)NC(=O)[C@H](Cc1ccccc1)NC(=O)[C@H](O)[C@H](Cc1ccccc1)NC(=O)OCc1ccccc1`, which Ki is on record?
Answer: 0.11 nM
